Laboratory results as given in patent US9708297B2, “CGRP receptor antagonists” (Eli Lilly and Company, priority 2015, dated 2017).

Target: T1, hCGRP (human calcitonin gene-related peptide) receptor (Homo sapiens, UniProt O60894+Q16602)
T1 construct: SK-N-MC neuroblastoma cells (ATCC® HTB-10™) that endogenously express the hCGRP receptor; host or cells: SK-N-MC neuroblastoma cells
Assay: Inhibition of cAMP production by CGRP receptor antagonists (HTRF) in SK-N-MC cells
Type: cell-based
Conditions: SK-N-MC cells endogenously expressing hCGRP receptor; human CGRP 0.8 nM as agonist; Kb=IC50/[1+([Agonist]/EC50)]; mean ± SEM
Method: The hCGRP (human calcitonin gene-related peptide) receptor is functionally coupled to the Gas proteins. Stimulation of hCGRP results in an increased synthesis of intracellular cAMP and can be blocked by the addition of receptor antagonists. Receptor activity is thus a reflection of the amount of cAMP present within cells which can be detected using standard in vitro technology.
Cultured SK-N-MC neuroblastoma cells (ATCC® HTB-10™) that endogenously express the hCGRP receptor are grown in Eagle's Minimum essential medium (HYCLONE™) supplemented with 10% heat-inactivated Fetal bovine serum (FBS; GIBCO®), Non-Essential Amino Acids (GIBCO®), 1 mM sodium pyruvate, 2 mM L-glutamine, 100 U/mL of penicillin, and 10 μg/mL of streptomycin to about 70% confluency. After providing fresh medium, the cells are incubated at 37° C. overnight. On the day of the assay, cells are detached using ACCUTASE® (MP Biomedicals), resuspended in assay buffer [Hank's Balanced Salt Solution/Dulbecco's phosphate-buffered saline with […] each of CaCl2 and MgCl2 mixed 1:2, 3.3 mM 4-(2-hydroxyethyl)-1-piperazineethanesulfonic acid, 0.03% bovine serum albumin, and 0.5 mM 1-methyl-3-isobutylxanthine (as inhibitor of […])], and seeded 3-5K/well into 384-well, poly-D-lysine coated white plates (BD Biosciences).
For dose-response studies, compounds are serially diluted 1:3 in dimethyl sulfoxide and then 1:10 into assay buffer. Human CGRP (0.8 nM; Bachem) as a receptor-specific agonist for the hCGRP receptor is mixed with diluted compound and added to the cells as the challenge stimulant at their EC80 concentrations.
The amount of intracellular cAMP is quantitated using HTRF technology (Cisbio) as per vendor instructions. Briefly, cAMP-d2 conjugate and anti-cAMP-cryptate conjugate in lysis buffer are incubated with the treated cells at RT for 90 min. The HTRF signal is immediately detected using an ENVISION® plate reader (Perkin-Elmer) to calculate the ratio of fluorescence at […]. The raw data are converted to cAMP amount (pmole/well) using a cAMP standard curve generated for each experiment. Relative EC50 values are calculated from the top-bottom range of the concentration response curve using a four-parameter logistic curve fitting program (ACTIVITYBASE® v5.3.1.22 or GENEDATA SCREENER® v12.0.4), and Kb values are estimated as agonist-corrected IC50 values using the equation: Kb=(IC50)/[1+([Agonist]/EC50)]. Estimated Kb values are reported as mean values±SEM, averaged from the number of runs (n).
Following the procedure essentially as described above, the compounds of Examples 1-12 have a Kb measured at human CGRP as shown in Table 3.

T1 sequence (Q16602 23-461): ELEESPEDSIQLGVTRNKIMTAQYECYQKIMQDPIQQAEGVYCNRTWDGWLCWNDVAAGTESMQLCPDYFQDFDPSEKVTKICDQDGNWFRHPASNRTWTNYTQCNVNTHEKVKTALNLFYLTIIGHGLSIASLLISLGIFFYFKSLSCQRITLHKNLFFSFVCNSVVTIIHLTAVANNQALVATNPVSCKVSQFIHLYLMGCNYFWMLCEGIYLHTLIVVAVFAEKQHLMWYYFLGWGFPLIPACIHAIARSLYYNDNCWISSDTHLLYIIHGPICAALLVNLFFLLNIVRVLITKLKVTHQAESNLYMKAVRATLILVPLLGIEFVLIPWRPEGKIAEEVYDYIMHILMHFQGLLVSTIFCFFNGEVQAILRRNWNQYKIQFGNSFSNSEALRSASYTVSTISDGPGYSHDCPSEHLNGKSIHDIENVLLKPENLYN
T1 sequence (O60894 27-148): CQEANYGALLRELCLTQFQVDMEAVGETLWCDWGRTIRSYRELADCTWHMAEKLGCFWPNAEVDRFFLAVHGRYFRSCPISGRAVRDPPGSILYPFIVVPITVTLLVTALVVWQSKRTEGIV

| Kb [nM] | SMILES |
| --- | --- |
| 0.546 ± 0.226 | Cc1cc(CNC(=O)c2ccc([C@@H](C)[C@]3(C)CC(=O)NC3=O)cc2)cc(C)n1 [Example 1, N-[(2,6-dimethylpyridin-4-yl)methyl]-4-{(1R)-1-[(3S)-3-methyl-2,5-dioxopyrrolidin-3-yl]ethyl}benzamide] |
| 2.22 ± 1.47 | Cc1cc(C)nc(CNC(=O)c2ccc([C@@H](C)[C@]3(C)CC(=O)NC3=O)cc2)c1 [Example 2, N-[(4,6-dimethyl-2-pyridyl)methyl]-4-[(l R)-1-[(3S)-3-methyl-2,5-dioxo-pyrrolidin-3-yl]ethyl]benzamide] |
| 1.51 ± 0.14 | Cc1cc(C#N)nc(CNC(=O)c2ccc([C@@H](C)[C@]3(C)CC(=O)NC3=O)cc2)c1 [Example 3, N-[(6-cyano-4-methyl-2-pyridyl)methyl]-4-[(1R)-1-[(3S)-3-methyl-2,5-dioxo-pyrrolidin-3-yl]ethyl]benzamide] |
| 23.5 ± 0.925 | Cc1cc(CNC(=O)c2ccc([C@@H](C)[C@]3(C)CC(=O)NC3=O)cc2)cc(C#N)n1 [Example 4, N-[(2-cyano-6-methyl-4-pyridyl)methyl]-4-[(1R)-1-[(3S)-3-methyl-2,5-dioxo-pyrrolidin-3-yl]ethyl]benzamide] |
| 0.718 ± 0.0045 | Cc1cc(CNC(=O)c2ccc([C@@H](C)[C@]3(C)CC(=O)NC3=O)cc2)cc(C(C)C)n1 [Example 5, N-[(2-isopropyl-6-methyl-4-pyridyl)methyl]-4-[(R)-1-[(3S)-3-methyl-2,5-dioxo-pyrrolidin-3-yl]ethyl]benzamide] |
| 0.375 ± 0.172 | Cc1cc(CNC(=O)c2ccc([C@@H](C)[C@]3(C)CC(=O)NC3=O)cc2)cc(C2CC2)n1 [Example 6, N-[(2-cyclopropyl-6-methyl-4-pyridyl)methyl]-4-[(1R)-1-[(3S)-3-methyl-2,5-dioxo-pyrrolidin-3-yl]ethyl]benzamide] |
| 0.582 ± 0.228 | Cc1cc(CNC(=O)c2ccc([C@@H](C)[C@]3(C)CC(=O)NC3=O)cc2)nc(C2CC2)c1 [Example 7, N-[(6-cyclopropyl-4-methyl-2-pyridyl)methyl]-4-[(1R)-1-[(3S)-3-methyl-2,5-dioxo-pyrrolidin-3-yl]ethyl]benzamide] |
| 1.25 ± 0.0045 | Cc1cc(CNC(=O)c2ccc([C@@H](C)[C@]3(C)CC(=O)NC3=O)cn2)cc(C)n1 [Example 8, N-[(2,6-dimethyl-4-pyridyl)methyl]-5-[(1R)-1-[(3S)-3-methyl-2,5-dioxo-pyrrolidin-3-yl]ethyl]pyridine-2-carboxamide] |
| 1.15 ± 0.181 | Cc1cc(CNC(=O)c2ccc([C@@H](C)[C@]3(C)CC(=O)NC3=O)cn2)cc(C2CC2)n1 [Example 9, N-[(2-cyclopropyl-6-methyl-4-pyridyl)methyl]-5-[(1R)-1-[(3S)-3-methyl-2,5-dioxo-pyrrolidin-3-yl]ethyl]pyridine-2-carboxamide] |
| 0.6 ± 0.0431 | CCc1cc(CNC(=O)c2ccc([C@@H](C)[C@]3(C)CC(=O)NC3=O)cc2)cc(C)n1 [Example 10, N-[(2-ethyl-6-methylpyridin-4-yl)methyl]-4-{(1R)-1-[(3S)-3-methyl-2,5-dioxopyrrolidin-3-yl]ethyl}benzamide] |
| 0.11 ± 0.011 | Cc1cc(CNC(=O)c2ccc([C@@H](C)[C@]3(C)CC(=O)NC3=O)cc2)cc(C2CCC2)n1 [Example 11, N-[(2-cyclobutyl-6-methylpyridin-4-yl)methyl]-4-{(1R)-1-[(3S)-3-methyl-2,5-dioxopyrrolidin-3-yl]ethyl}benzamide] |
| 0.295 ± 0.056 | Cc1cc(CNC(=O)c2ccc([C@@H](C)[C@]3(C)CC(=O)NC3=O)cc2)cc(C2CCCC2)n1 [Example 12, N-[(2-cyclopentyl-6-methylpyridin-4-yl)methyl]-4-{(1R)-1-[(3S)-3-methyl-2,5-dioxopyrrolidin-3-yl]ethyl}benzamide] |

Test system: CGRP receptor
Assay: Capsaicin-induced dermal blood flow (DBF), laser Doppler imaging, in nonhuman primates
Type: in vivo
Conditions: 3 mg/kg orally, 90 min prior to capsaicin; cynomolgus NHP; compared to vehicle; p<0.003
Excerpt: Capsaicin-induced dermal blood flow (DBF) may be used as a target engagement biomarker to assess CGRP receptor activity in nonhuman primates (NHPs). Methods are adapted from earlier published procedures [Hershey et al., Regulatory Peptides, Volume 127, Issue 1-3, pp. 71-77, 2005].
Animal studies may be performed under protocols approved by the Covance Institutional Animal Care and Use Committee. Cynomolgus NHPs may be used given the close homology between NHP and human CGRP receptor. The study population may include healthy, CGRP antagonist naive cynomolgus NHP males weighing ˜3-4 kg.
Cynomolgus NHPs are enrolled in the study based on prescreening for capsaicin responsiveness. […] NHPs are used in a cross over design in which all NHPs received all doses after a two week wash-out period. Total n=10 NHPs per group. […]
Analysis and Statistics: LDI repeat scans are analyzed using Moor software v.5.2 (Moor Instruments, Wilmington, Del.) by region of interest signal analysis, and Microsoft Excel worksheets are used for averaging the signal from the regions of interest at a given time point. […] Analyzed data is entered into Graphpad PRISM® 4.0 for graphing and a repeated measurement mixed-effect model in SAS® 9.1 is used for statistical analysis. Data is expressed as mean+/−SD.

| SMILES | group mean inhibition of capsaicin-induced blood flow increase [%] |
| --- | --- |
| Cc1cc(CNC(=O)c2ccc([C@@H](C)[C@]3(C)CC(=O)NC3=O)cc2)cc(C)n1 [Example 1, N-[(2,6-dimethylpyridin-4-yl)methyl]-4-{(1R)-1-[(3S)-3-methyl-2,5-dioxopyrrolidin-3-yl]ethyl}benzamide] | 27.4 |

Same assay, conditions: 30 mg/kg orally, 90 min prior to capsaicin; cynomolgus NHP; compared to vehicle; p<0.00001

| SMILES | group mean inhibition of capsaicin-induced blood flow increase [%] |
| --- | --- |
| Cc1cc(CNC(=O)c2ccc([C@@H](C)[C@]3(C)CC(=O)NC3=O)cc2)cc(C)n1 [Example 1, N-[(2,6-dimethylpyridin-4-yl)methyl]-4-{(1R)-1-[(3S)-3-methyl-2,5-dioxopyrrolidin-3-yl]ethyl}benzamide] | 40.6 |
